Results on one compound are retold here after patent EP0108147B1, “Use of a protoberberine alkaloid and composition containing same” (MAROKO, Peter R., priority 1982, dated 1983).

One series relates to dogs. Nature of the series: Protocol RK, single dose: dose response on systemic arterial pressure and heart rate. The series is classed as in vivo. The conditions noted are these: for average fall in mean arterial pressure: 90 minutes after injection. Here is the method: In 4 groups of dogs instrumented as in the last series of experiments (Protocol RK) the effects of increasing dose response on systemic arterial pressure was examined. The only difference from that protocol was that only one dose of berberine (as opposed to two) was administered.
The effects on the measured parameters is dose responsive. In four groups of dogs, the changes in blood pressure were analyzed. The dosage administered was7.5,15,30 and 70 mg/Kg. It was observed that generally blood pressure drop was most marked in the first 5 minutes. After 90 minutes following the injection (when the experiment wad discontinued), the average fall in mean arterial pressure in the group which received 15 mg/Kg was 19 mmHg; in the group that received 30 mg/Kg it was 37 mmHg and in the group that received 70 mg/Kg it was 63 mmHg.

The nature of the next series: LD50, intravenous bolus. To be noted: rat, in vivo.
Series [1] relates to patient with cardiomyopathy. Nature of the series: Berberine in one patient with cardiomyopathy in irreversible cardiogenic shock. It counts as in vivo. On the procedure: In the last two hours before berberine it was not measurable. […] Stroke volume was 20 ml and then 36 and then 36 ml.

As for `COc1ccc2cc3[n+](cc2c1OC)CCc1cc2c(cc1-3)OCO2` [berberine], the “decrease of heart rate” value in the series on dogs (7.5 mg/Kg) was found to be 20 beats/min; with dogs (15 mg/Kg) it was 16 beats/min; in the series with dogs (35 mg/Kg), 40 beats/min; in the series with dogs (70 mg/Kg) it was 103 beats/min. Besides, the “average fall in mean arterial pressure” value with dogs (15 mg/Kg) came out at 19 mmHg; in the series with dogs (30 mg/Kg), 37 mmHg; with dogs (70 mg/Kg), 63 mmHg. Moreover, the primary arrhythmias result with dogs (7.5 to 70 mg/Kg) is “No primary arrhythmias were obtained”. Besides, in the series “LD50, intravenous bolus”, the LD50 (usually the dose at which mortality reaches 50%) is approximately 55 mg/kg. The cardiac output in series [1] (0.2 and 0.4 mg/kg/min, after 30 minutes, from 1.2) stood at 3.5 L/min; in series [1] (after 90 minutes), 2.2 L/min. Further, the “increase of cardiac output” value is on record as 192% in series [1] (after 30 minutes) and 82% in series [1] (after 90 minutes). Moreover, the Stroke volume was 36 mL in series [1] (first value after berberine, from 20 ml) and 36 mL in series [1] (second value after berberine).
